In patent US9770481B2, “Inhibitors of NOX1” (UNIVERSITY OF PITTSBURGH—OF THE COMMONWEALTH SYSTEM OF …, priority 2011, dated 2017):
Ends that are not written are not given here.

Assays:
[1] = tested on: Nox1-YFP; assay: Image cross correlation spectroscopy (ICCS) of R-NoxA1ds and Nox1-YFP; format: binding; details: ICCS, 100 images 0.05 s apart
Method: An ELISA of Nox1:NoxA1ds interaction was performed as follows. Neutravidin coated plates were incubated with biotin-tagged NoxA1ds (Biotin-NoxA1ds) or biotin-tagged SCRMB (Biotin-SCRMB) before addition of cell membranes prepared from cells transfected with Nox1 (Nox1 membrane) or transfected with an empty vector (COS22 membrane). Bound Nox1 was detected through a FITC conjugated secondary antibody (αRabbit Ab Sigma F9887) bound to the Nox1 primary antibody (rabbit αNox1 Ab (SC-25545, Santa Cruz Biotechnology)). FITC fluorescence was expressed as binding as % COS22 membranes on each experimental day. […] To further confirm the association, image cross correlation spectroscopy (ICCS) was used to determine patterns in signal fluctuation between rhodamine-labeled NoxA1ds (R-NoxA1ds) and Nox1-YFP though a sequence of 100 images 0.05 s apart. Correlation and cross-correlation was calculated using an ImageJ plugin.

[2] = target: T1, Nox1 (Homo sapiens, UniProt Q9Y5S8); assay: O2- production by COS22 cells transfected with Nox1 (cytochrome c reduction); format: cell-based; details: increasing concentrations
T1 construct: expressed in transfected cells; host or cells: COS22 (monkey kidney COS cells stably expressing human p22phox)
T1 sequence (Q9Y5S8 1-564): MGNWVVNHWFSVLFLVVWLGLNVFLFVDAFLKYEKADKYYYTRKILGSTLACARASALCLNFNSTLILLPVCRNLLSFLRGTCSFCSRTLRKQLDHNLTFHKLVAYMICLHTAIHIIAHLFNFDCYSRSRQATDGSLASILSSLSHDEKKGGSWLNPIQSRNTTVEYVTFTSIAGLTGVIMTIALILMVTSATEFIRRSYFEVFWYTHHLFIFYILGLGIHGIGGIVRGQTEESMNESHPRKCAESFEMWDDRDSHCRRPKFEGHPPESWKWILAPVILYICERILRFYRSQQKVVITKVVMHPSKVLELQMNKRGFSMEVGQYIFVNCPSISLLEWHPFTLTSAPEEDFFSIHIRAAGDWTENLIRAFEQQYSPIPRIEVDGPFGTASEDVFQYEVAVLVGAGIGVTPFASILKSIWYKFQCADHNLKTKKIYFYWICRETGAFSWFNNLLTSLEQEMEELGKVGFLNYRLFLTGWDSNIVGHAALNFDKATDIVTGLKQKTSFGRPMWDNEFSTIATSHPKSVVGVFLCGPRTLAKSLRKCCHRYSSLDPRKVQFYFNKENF
T1 sequence (P13498 1-195 partner): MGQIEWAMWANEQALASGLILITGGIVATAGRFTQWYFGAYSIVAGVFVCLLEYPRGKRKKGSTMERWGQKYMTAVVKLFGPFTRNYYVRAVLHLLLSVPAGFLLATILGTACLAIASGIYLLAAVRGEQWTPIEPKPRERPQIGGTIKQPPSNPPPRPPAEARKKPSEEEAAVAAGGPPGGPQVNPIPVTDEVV
Method: Experiments were performed to test the effect of NoxA1ds on O2^− production by Nox1. COS22 is a monkey kidney COST cell line expressing transgenic human p22phox and was produced by stable transfection of the full-length p22phox cDNA into parental COST wild-type cells. COS22 cells were transfected with Nox1 to express the Nox1 enzyme and were then treated with either NoxA1ds or its scrambled control (SCRMB). Production of O2^− was calculated by monitoring the reduction of cytochrome c for 15 minutes post NADPH addition and subtracting baseline cytochrome c reduction occurring in the presence of SOD.

[3] = target: T2, interaction between Nox1 and NoxA1 (Homo sapiens, UniProt Q9Y5S8); assay: FRET between Nox1-YFP and NoxA1-CFP in transfected COS22 cells; format: cell-based; details: 10 μM, one hour prior to imaging
T2 construct: expressed in transfected cells; host or cells: COS22
T2 sequence (Q9Y5S8 1-564): T1 sequence (Q9Y5S8 1-564)
T2 sequence (P13498 2-195 partner limits assumed): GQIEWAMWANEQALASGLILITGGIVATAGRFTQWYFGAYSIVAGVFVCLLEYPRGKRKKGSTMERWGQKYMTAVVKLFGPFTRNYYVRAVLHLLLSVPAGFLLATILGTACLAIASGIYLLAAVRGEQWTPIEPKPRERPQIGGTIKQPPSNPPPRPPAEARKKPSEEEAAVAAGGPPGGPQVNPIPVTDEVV
Method: FRET (fluorescence resonance energy transfer) studies were performed to study the effect of NoxA1ds on the interaction between Nox1 and NoxA1: In particular, FRET between Nox1-YFP and NoxA1-CFP transfected COS22 cells in the presence or absence of 10 μM NoxA1ds or SCRMB was evaluated. Relative fluorescence of CFP is green while YFP is red. Traces underneath the images indicate fluorescent intensities of CFP and YFP underneath the arrow overlaid on each cell.

[4] = tested on: rat aortic smooth muscle cells; assay: Calponin and osteopontin expression in stretched rat aortic smooth muscle cells (Western blot); format: cell-based; details: 10 μM added every four hours; cyclic stretch 24 hrs
Method: The effect of Nox1 inhibition on the expression of certain protein markers of rat aortic smooth muscle cell contractile vs. synthetic phenotypes was evaluated. Cells were subjected to 24 hrs of cyclic stretch (10%, 1 Hz) with 10 μM NoxA1ds or SCRMB control being added every four hours. […] Calponin expression during stretch was rescued by the addition of 10 μM NoxA1ds, yet was unaffected by the addition of 10 μM scrambled peptide (SCRMB). A representative Western blot is shown below the graph (FIG. 9B). Osteopontin (OPN, a marker of the […] phenotype), expression increased after 24 hrs of stretch.

[5] = tested on: human pulmonary artery endothelial cells; assay: Hypoxia-induced superoxide production by human pulmonary artery endothelial cells; format: cell-based
Method: Experiments were also performed to evaluate the effect of NoxA1ds on hypoxia-induced superoxide production by human pulmonary artery endothelial cells.

[6] = tested on: HT-29 colon adenocarcinoma cells; assay: O2- production by HT-29 cells (SOD inhibitable reduction of cytochrome c); format: cell-based; details: increasing doses

Substance | Fractional binding of Nox1-YFP and R-NoxA1ds [1] | Inhibition of Nox1-derived O2- production [2] | CFP fluorescence after photobleaching of Nox1-YFP (FRET) [3] | Calponin expression during stretch [4] | Osteopontin (OPN) expression during stretch [4] | O2- production under hypoxia ([5]; hypoxia 1.0% O2, 24 hrs) | O2- production under normoxic conditions ([5]; normoxia) | Inhibition of O2- production by HT-29 cells [6]
R-NoxA1ds: rhodamine-labeled NoxA1ds (EPVDALGKAKV-NH2; also: rhodamine label, position not given here) | ~1.0 | – | – | – | – | – | – | –
SCRMB: inactive, scrambled version of NoxA1ds (negative control) (H-LVKGPDAEKVA-NH2) [reference compound] | – | did not inhibit | resulted in a concomitant increase in CFP fluorescence | unaffected | unaffected | unaffected | negligible effect | did not inhibit
